# Target: T1, AR-VP16 (Homo sapiens, UniProt P10275)
# T1 sequence (P10275 560-920 limits assumed): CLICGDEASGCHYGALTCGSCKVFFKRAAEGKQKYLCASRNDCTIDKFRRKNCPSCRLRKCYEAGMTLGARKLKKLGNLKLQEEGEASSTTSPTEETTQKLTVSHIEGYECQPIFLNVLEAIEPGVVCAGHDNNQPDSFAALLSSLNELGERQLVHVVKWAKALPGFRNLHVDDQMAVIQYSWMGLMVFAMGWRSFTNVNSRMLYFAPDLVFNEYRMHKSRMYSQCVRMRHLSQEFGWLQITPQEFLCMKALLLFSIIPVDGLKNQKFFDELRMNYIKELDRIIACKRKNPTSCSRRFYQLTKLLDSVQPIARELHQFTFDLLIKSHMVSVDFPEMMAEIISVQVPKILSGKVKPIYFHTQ
# Experiment: AR-VP16 DNA Binding Assay, agonist mode (HepG2 cells)
# Assay type: cell-based
# Settings: Emax >20x DMSO control = agonist
row,Structure (SMILES),ARVP16 DNA Binding Assay (Agonist mode): Agonist?
1,"CCOC(=O)CCNC(=O)c1ccc(N2C(=S)N(c3cnc(C#N)c(C(F)(F)F)c3)C(=O)C23CCC3)cc1F [Compound 246, Ethyl 3-(4-(7-(6-cyano-5-(trifluoromethyl)pyridin-3-yl)-8-oxo-6-thioxo-5,7-diazaspiro[3.4]octan-5-yl)-2-fluorobenzamido)propanoate]",No (Agonist defined as a compound whose Emax in the ARVP16 DNA Binding Assay (Agonist mode) is >20x DMSO control)
2,"CN1CCN(CCCOc2cc(N3C(=S)N(c4cnc(C#N)c(C(F)(F)F)c4)C(=O)C34CCC4)ccc2F)CC1 [Compound 167, 5-(5-(4-Fluoro-3-(3-(4-methylpiperazin-1-yl)propoxy)phenyl)-8-oxo-6-thioxo-5,7-diazaspiro[3.4]octan-7-yl)-3-(trifluoromethyl)picolinonitrile]",No (Agonist defined as a compound whose Emax in the ARVP16 DNA Binding Assay (Agonist mode) is >20x DMSO control)
3,"Cc1cc(N2C(=O)C3(CCC3)N(c3ccc4c(c3)CNC4=O)C2=S)cnc1C#N [Compound 111, 3-Methyl-5-(8-oxo-5-(1-oxoisoindolin-5-yl)-6-thioxo-5,7-diazaspiro[3.4]octan-7-yl)picolinonitrile]",No (Agonist defined as a compound whose Emax in the ARVP16 DNA Binding Assay (Agonist mode) is >20x DMSO control)
4,"COc1cc(F)ccc1N1C(=S)N(c2cnc(C#N)c(C(F)(F)F)c2)C(=O)C12CCC2 [Compound 29, 5-(5-(4-Fluoro-2-methoxyphenyl)-8-oxo-6-thioxo-5,7-diazaspiro[3.4]octan-7-yl)-3-(trifluoromethyl)picolinonitrile]",No (Agonist defined as a compound whose Emax in the ARVP16 DNA Binding Assay (Agonist mode) is >20x DMSO control)
5,"CN1CCC(Oc2ccc(N3C(=S)N(c4cnc(C#N)c(C(F)(F)F)c4)C(=O)C34CCC4)cc2)CC1 [Compound 129, 5-(5-(4-((1-Methylpiperidin-4-yl)oxy)phenyl)-8-oxo-6-thioxo-5,7-diazaspiro[3.4]octan-7-yl)-3-(trifluoromethyl)picolinonitrile]",No (Agonist defined as a compound whose Emax in the ARVP16 DNA Binding Assay (Agonist mode) is >20x DMSO control)

# Target: T1, AR-VP16
# Experiment: AR-VP16 DNA Binding Assay, antagonist mode (HepG2 cells, 0.1 nM R1881)
# Assay type: cell-based
# Settings: not given
# Summary of the method: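 HepG2 cells transiently transfected with AR-VP16 (Lipofectin), incubated overnight, then treated with compound in RPMI with charcoal-stripped serum. Antagonist mode adds R1881 at 0.1 nM final. Cells lysed after 48 h incubation for read-out.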
row,Structure (SMILES),IC50 [nM]
1,"CCOC(=O)CCNC(=O)c1ccc(N2C(=S)N(c3cnc(C#N)c(C(F)(F)F)c3)C(=O)C23CCC3)cc1F [Compound 246, Ethyl 3-(4-(7-(6-cyano-5-(trifluoromethyl)pyridin-3-yl)-8-oxo-6-thioxo-5,7-diazaspiro[3.4]octan-5-yl)-2-fluorobenzamido)propanoate]",> 1000
2,"CN1CCN(CCCOc2cc(N3C(=S)N(c4cnc(C#N)c(C(F)(F)F)c4)C(=O)C34CCC4)ccc2F)CC1 [Compound 167, 5-(5-(4-Fluoro-3-(3-(4-methylpiperazin-1-yl)propoxy)phenyl)-8-oxo-6-thioxo-5,7-diazaspiro[3.4]octan-7-yl)-3-(trifluoromethyl)picolinonitrile]",> 1000
3,"Cc1cc(N2C(=O)C3(CCC3)N(c3ccc4c(c3)CNC4=O)C2=S)cnc1C#N [Compound 111, 3-Methyl-5-(8-oxo-5-(1-oxoisoindolin-5-yl)-6-thioxo-5,7-diazaspiro[3.4]octan-7-yl)picolinonitrile]",> 1000
4,"COc1cc(F)ccc1N1C(=S)N(c2cnc(C#N)c(C(F)(F)F)c2)C(=O)C12CCC2 [Compound 29, 5-(5-(4-Fluoro-2-methoxyphenyl)-8-oxo-6-thioxo-5,7-diazaspiro[3.4]octan-7-yl)-3-(trifluoromethyl)picolinonitrile]",< 1000
5,"N#Cc1ncc(N2C(=O)C3(CCC3)N(c3ccc(C(=O)NCc4ccccc4Cl)c(F)c3)C2=S)cc1C(F)(F)F [Compound 287, N-(2-Chlorobenzyl)-4-(7-(6-cyano-5-(trifluoromethyl)pyridin-3-yl)-8-oxo-6-thioxo-5,7-diazaspiro[3.4]octan-5-yl)-2-fluorobenzamide]",< 1000
6,"N#Cc1ncc(N2C(=O)C3(CCC3)N(c3ccc(C(=O)NCc4ccccn4)c(F)c3)C2=S)cc1C(F)(F)F [Compound 264, 4-(7-(6-Cyano-5-(trifluoromethyl)pyridin-3-yl)-8-oxo-6-thioxo-5,7-diazaspiro[3.4]octan-5-yl)-2-fluoro-N-(pyridin-2-ylmethyl)benzamide]",< 1000
7,"CNC(=O)c1ccc(N2C(=S)N(c3cnc(C#N)c(C)c3)C(=O)C23CCC3)cc1C(F)(F)F [Compound 109, 4-(7-(6-Cyano-5-methylpyridin-3-yl)-8-oxo-6-thioxo-5,7-diazaspiro[3.4]octan-5-yl)-N-methyl-2-(trifluoromethyl)benzamide]",< 1000
8,"COCCOc1ccc(N2C(=S)N(c3cnc(C#N)c(C(F)(F)F)c3)C(=O)C23CCC3)c(F)c1 [Compound 181, 5-(5-(2-Fluoro-4-(2-methoxyethoxy)phenyl)-8-oxo-6-thioxo-5,7-diazaspiro[3.4]octan-7-yl)-3-(trifluoromethyl)picolinonitrile]",< 1000
9,"Cc1cc(N2C(=O)C3(CCC3)N(c3ccc(Oc4ccncn4)cc3)C2=S)cnc1C#N [Compound 209, 3-Methyl-5-(8-oxo-5-(4-(pyrimidin-4-yloxy)phenyl)-6-thioxo-5,7-diazaspiro[3.4]octan-7-yl)picolinonitrile]",< 1000
10,"N#Cc1ncc(N2C(=O)C3(CCC3)N(c3ccc(OCc4ccncc4)c(F)c3)C2=S)cc1C(F)(F)F [Compound 156, 5-(5-(3-Fluoro-4-(pyridin-4-ylmethoxy)phenyl)-8-oxo-6-thioxo-5,7-diazaspiro[3.4]octan-7-yl)-3-(trifluoromethyl)picolinonitrile]",< 1000
11,"Cc1cc(N2C(=O)C3(CCC3)N(c3ccc(C(=O)Nc4ccnn4C)c(F)c3)C2=S)cnc1C#N [Compound 302, 4-(7-(6-Cyano-5-methylpyridin-3-yl)-8-oxo-6-thioxo-5,7-diazaspiro[3.4]octan-5-yl)-2-fluoro-N-(1-methyl-1H-pyrazol-5-yl)benzamide]",< 1000
12,"Cc1cc(N2C(=O)C3(CCC3)N(c3ccc(C(=O)Nc4nccs4)c(F)c3)C2=S)cnc1C#N [Compound 301, 4-(7-(6-Cyano-5-methylpyridin-3-yl)-8-oxo-6-thioxo-5,7-diazaspiro[3.4]octan-5-yl)-2-fluoro-N-(thiazol-2-yl)benzamide]",< 1000
13,"N#Cc1ncc(N2C(=O)C3(CCC3)N(c3ccc(OCCN4CCNCC4)c(F)c3)C2=S)cc1C(F)(F)F [Compound 174, 5-(5-(3-fluoro-4-(2-(piperazin-1-yl)ethoxy)phenyl)-8-oxo-6-thioxo-5,7-diazaspiro[3.4]octan-7-yl)-3-(trifluoromethyl)picolinonitrile]",< 1000
14,"CNC(=O)c1ccc(N2C(=S)N(c3cnc(C#N)c(C)c3)C(=O)C23CCC3)cc1Cl [Compound 108, 2-Chloro-4-(7-(6-cyano-5-methylpyridin-3-yl)-8-oxo-6-thioxo-5,7-diazaspiro[3.4]octan-5-yl)-N-methylbenzamide]",< 1000
15,"N#Cc1ncc(N2C(=O)C3(CCC3)N(c3ccc(Oc4ccncn4)cc3)C2=S)cc1C(F)(F)F [Compound 208, 5-(8-Oxo-5-(4-(pyrimidin-4-yloxy)phenyl)-6-thioxo-5,7-diazaspiro[3.4]octan-7-yl)-3-(trifluoromethyl)picolinonitrile]",< 1000
16,"CC(C)CCNC(=O)c1ccc(N2C(=S)N(c3cnc(C#N)c(C(F)(F)F)c3)C(=O)C23CCC3)cc1F [Compound 282, 4-(7-(6-Cyano-5-(trifluoromethyl)pyridin-3-yl)-8-oxo-6-thioxo-5,7-diazaspiro[3.4]octan-5-yl)-2-fluoro-N-isopentylbenzamide]",< 1000
17,"Cc1ccc(N2C(=S)N(c3ccc(C#N)c4ncccc34)C(=O)C23CCC3)cc1 [Compound 36, 5-(8-Oxo-6-thioxo-5-(p-tolyl)-5,7-diazaspiro[3.4]octan-7-yl)quinoline-8-carbonitrile]",< 1000
18,"Cc1cc(N2C(=O)C3(CCC3)N(c3ccc(C4CCOCC4)cc3)C2=S)cnc1C#N [Compound 112, 3-Methyl-5-(8-oxo-5-(4-(tetrahydro-2H-pyran-4-yl)phenyl)-6-thioxo-5,7-diazaspiro[3.4]octan-7-yl)picolinonitrile]",< 1000
19,"N#Cc1ncc(N2C(=O)C3(CCC3)N(c3ccc(C(=O)NCc4cccs4)c(F)c3)C2=S)cc1C(F)(F)F [Compound 260, 4-(7-(6-Cyano-5-(trifluoromethyl)pyridin-3-yl)-8-oxo-6-thioxo-5,7-diazaspiro[3.4]octan-5-yl)-2-fluoro-N-(thiophen-2-ylmethyl)benzamide]",< 1000

# Source: US9108944B2, “Androgen receptor modulators and uses thereof” (ARAGON PHARMACEUTICALS, INC., priority 2010, dated 2015)
